Test results taken from US11065249B2, “Diacylglycerol acyl transferase 2 inhibitor” (Pfizer Inc., priority 2019, dated 2021).
In brackets after ≈: the same amount, converted by molar mass.

Tests used:
[1] = Intrinsic clearance in human hepatocytes (relay method); type: in vitro ADME; conditions: cryopreserved human hepatocytes (suspension), relay hepatocyte assay, 1 μM test compound, mean +/− Std Dev
Procedure: Cryopreserved human hepatocytes (Lot DCM from BioreclamationIVT) were used. […] At time 0 and 4 h, 25 μL of hepatocyte suspension was removed from the incubation and added to 50 μL of ice-cold acetonitrile (containing metoprolol, indomethacin, and terfenadine as internal standards) to quench the reaction. The samples were centrifuged (Eppendorf, Hauppauge, N.Y.) at 3000 rpm (1439×g) for 10 min at room temperature, and 50 μL of supernatant was transferred to a clean plate, dried completely, and reconstituted before liquid chromatography/tandem mass spectrometry (LC-MS/MS) analysis. The remaining hepatocyte suspensions in the incubation plate were centrifuged (3000 rpm, 1439×g, 10 min, room temperature). The supernatant of 300 μL was transferred to a clean 24-well plate and stored at −80° C. until the next relay experiment. For the second relay experiment, the supernatant plates were warmed first to room temperature for 30 minutes, then to 37° C. for 30 min, and hepatocytes were added to the samples to give a final cell density of 0.5 million cells/mL. The plates were incubated at 37° C. for 4 h, sampled, and processed as described above. Five relays were performed to give a total incubation time of 20 h, with sampling points at (0, 4, 8, 12, 16 and 20 h). The concentrations of test compound determined at each time point by the LC-MS/MS analysis were used to calculate the intrinsic clearance.

[2] = Intrinsic clearance in human liver microsomes; type: in vitro ADME; conditions: human, pooled human liver microsomes, pH 7.4, human liver microsome assay, 1 μM test compound; mean +/− STD Dev
Procedure: The incubations were conducted at 37° C. […] (Sorvall R C 3C Plus, Thermo Scientific, Waltham, Mass.).

[3] = Thermodynamic solubility in various biorelevant media (PBS, SGN, FaSSIF, FeSSIF); type: physicochemical; conditions: 25 °C, thermodynamic from solid
Procedure: The solubility of active pharmaceutical ingredients is an important characteristic in determining biological performance and ease of formulation during drug development, with high solubility being preferred (Klein, S. 2010, The AAPS Journal, 12, 397-406; Di, L., et al 2012, Drug Disc. Today, 17.486-495). A test sample of crystalline solid (˜7 mg) was combined in a vial with 1 mL of the relevant buffer solution and the mixture vortexed to combine. If the solid dissolved completely, additional solid was added with vortexing until a saturated solution was obtained. The saturated solution/solid mixture was capped and subjected to temperature cycling as follows: 1 min at 25° C.; 8 h at 40° C.; 5 h at 15° C. and 12 h at 25° C. The mixture was filtered in a centrifugal filtration device (0.22 μm PVDF filter, MilliporeSigma, Milwaukee, Wis.) at 13,000 rpm and the concentration of the test compound in the filtrate was determined by HPLC/UPLC with reference to a three point standard curve. Phosphate buffered saline (PBS, pH 6.8, 50 mM phosphate buffer, 250 mM NaCl). Simulated gastric fluid (SGN pH 1.2, USP recipe). Fasted state simulated intestinal fluid (FaSSIF, 3 mM sodium taurocholate, 0.75 mM phospholipid from soybean lecithin, 50 mM phosphate buffer, ionic strength adjusted to 250 mM with NaCl, pH 6.8) and fed state simulated intestinal fluid (FeSSIF, 15 mM sodium taurocholate, 3.75 mM phospholipid from soybean lecithin, 144 mM acetic acid, 50 mM phosphate buffer, ionic strength adjusted to 250 mM with NaCl, pH 6.8).

[4] = Determination of pKa (capillary electrophoresis, Analiza); type: physicochemical; conditions: most basic pKa, mean
[5] = High throughput determination of intrinsic clearance in human hepatocytes; type: in vitro ADME; conditions: human, pooled cryopreserved human hepatocytes (suspension), high throughput human hepatocyte assay, 1 μM test compound; mean +/− Std Dev
Procedure: The incubation was carried out at 37° C. […] The samples were centrifuged (Eppendorf, Hauppauge, N.Y.) at 3000 rpm for 5 min at 4° C.

[6] = test system: Western diet fed Sprague-Dawley rats; test: Rat western diet model: in vivo effects on plasma and hepatic triglyceride levels; conditions: oral twice daily 3-100 mg/kg, compared with chow-fed vehicle animals
Excerpt: The rat western diet model was utilized to assess the effects of DGAT2 inhibitor treatment on plasma triglyceride production and hepatic triglyceride content in vivo. Male Sprague-Dawley rats were housed under standard laboratory conditions on a 12-hour light, 12-hour dark cycle (lights on at 06:00). Two weeks prior to study start animals were placed on a high-fat, high sucrose, high-cholesterol diet (D12079b, provided by Research Diets, New Brunswick, N.J.). This diet provides ˜43% of kilocalories from carbohydrate and ˜41% of kilocalories from fat. Example 4 was administered orally as a solution (10 mL/kg dosing volume) in 0.5% methylcellulose in deionized water, pH 7.0-7.5 (methylcellulose was obtained from Sigma-Aldrich, St. Louis, Mo.). […] Plasma TG levels were determined using a Roche Hitachi Chemistry analyzer according to the manufacturer's instructions (Roche Diagnostics Corporation, Indianapolis, Ind.) and data was analyzed using GraphPad Prism (GraphPad Software, Inc., La Jolla, Calif.). […] The triglyceride assay was performed through absorbance and reported as milligrams per deciliter. […]
FIG. 4 plots the multiple dose effects of Example 4 on Plasma Triglyceride in Western Diet Fed Sprague-Dawley Rats where plasma triglyceride levels were determined from blood drawn from the lateral tail vein 2-hours following the final dose of Example 4. […]

## CCOc1cccnc1Oc1cncc(-c2ncc(C(=O)N[C@@H]3CNC[C@@H](F)C3)cn2)c1 [Example 4, 2-{5-[(3-Ethoxypyridin-2-yl)oxy]pyridin-3-yl}-N-[(3S,5S)-5-fluoropiperidin-3-yl]pyrimidine-5-carboxamide]
[1]
  hepatocyte CLint at 1 μM: 0.98 µL/min/1e6 cells
[2]
  microsomal CLint at 1 μM: < 7 µL/min/mg
[3]; fasted state simulated intestinal fluid (FaSSIF), FaSSIF pH 6.8
  solubility at 25 h: 955 µg/mL (≈ 2180 µM)
[3]; phosphate buffered saline, aqueous buffer, PBS, pH 6.8
  solubility at 25 h: 580 µg/mL (≈ 1320 µM)
[3]; simulated gastric fluid, SGN pH 1.2
  solubility at 25 h: > 27000 µg/mL
[4]
  pKa: 7.5
[5]
  hepatocyte CLint at 1 μM: < 1.8 µL/min/1e6 cells
[6]
  circulating triglyceride response, resulting levels: approached those of the chow-fed vehicle animals
